Results: US20250092014A1, “COMPOUNDS AND METHODS OF ACTIVATING LIPOPROTEIN LIPASE” (Metrea Biosciences, Inc., priority 2021, published 2025)

What was measured:
[1] = biological target: T1, LPL:sGPIHBPI complex (Homo sapiens, UniProt P06858); assay: VLDL assay (LPL:sGPIHBP1 pre-incubated with ANGPTL4, VLDL substrate, Amplex Red readout); type: biochemical; details: read-out: VLDL qAC50
T1 sequence (P06858 28-475): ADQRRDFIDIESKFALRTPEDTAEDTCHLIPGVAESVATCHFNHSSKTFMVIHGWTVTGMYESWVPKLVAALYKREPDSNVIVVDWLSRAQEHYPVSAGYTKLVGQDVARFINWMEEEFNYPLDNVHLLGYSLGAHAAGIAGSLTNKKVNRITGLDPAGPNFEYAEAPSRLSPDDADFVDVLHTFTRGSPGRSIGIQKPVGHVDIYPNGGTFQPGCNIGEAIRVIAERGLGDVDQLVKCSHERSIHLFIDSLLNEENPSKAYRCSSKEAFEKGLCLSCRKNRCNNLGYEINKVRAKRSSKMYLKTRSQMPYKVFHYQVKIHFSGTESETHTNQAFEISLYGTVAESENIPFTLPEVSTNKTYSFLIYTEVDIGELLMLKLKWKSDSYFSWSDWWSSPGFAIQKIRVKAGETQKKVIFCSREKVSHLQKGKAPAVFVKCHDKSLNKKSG
T1 sequence (Q8IV16 21-151 partner limits assumed): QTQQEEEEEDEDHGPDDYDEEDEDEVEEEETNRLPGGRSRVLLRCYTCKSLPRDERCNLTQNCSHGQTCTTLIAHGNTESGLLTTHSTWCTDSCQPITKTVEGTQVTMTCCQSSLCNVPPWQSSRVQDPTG
Procedure: The assay was performed in black I536-well plates using purified proteins. To identify compounds that stimulate LPL activity either by directly activating LPL or by inhibiting the antagonist ANGPTL4, the LPL:sGPIHBPI complex was pre-incubated with ANGPTL4 to decrease LPL activity by 80%. After a 60 min pre-incubation, the coupled enzyme system supplemented with Amplex Red reagent was added. The enzymatic reaction was started by adding the VLDL substrate. 120 min after VLDL addition, the reaction was stopped using SDS and the fluorescence intensity was measured.
40 or 45 nl of compound solution in 100% DMSO were placed in test plate. Then LPL:sGPIHBPI was added to all wells (diluted in assay buffer to 80 nM; 1 μl/well). This was followed by an addition of ANGPTL4 to compounds and neutral controls (diluted in assay buffer to 84 nM; 1 μl/well). The assay buffer was added to stimulator control (1 μl/well). Then the plates were centrifuged and pre-incubated 60 min at RT. A NEFA (1:2 diluted in PBS) supplemented with Amplex Red (40 μM was further added to all wells (1 μl/well). The reaction was then started by adding substrate to all wells (diluted in VLDL buffer to 16 Vg/ml, 1 μl/well). The plates were further centrifuged (800 rpm for 1 my) and incubated 120 m at RT (=reaction time). The reaction was then by adding SDS to all wells (diluted in water to 2.5%, 2 μl/well) and further incubated 30 mi at RT. The fluorescence intensity (ex 540 nm/em 590 nm) was measured on a Pherastar (BMG) using 20 flashes.

[2] = biological target: T2, LPL (native bovine milk protein) inactivated by ANGPTL4 (Bos taurus, UniProt P11151); assay: LPL ANGPTL4 protection assay (LPL fluorescence assay, resorufin butyrate substrate); type: biochemical; details: LPL activation activity, LPL 2.5 nM, ANGPTL4 20 nM
T2 construct: from tissue; host or cells: bovine milk (LPL); E. coli (GST-ANGPTL4)
T2 sequence (P11151 29-478): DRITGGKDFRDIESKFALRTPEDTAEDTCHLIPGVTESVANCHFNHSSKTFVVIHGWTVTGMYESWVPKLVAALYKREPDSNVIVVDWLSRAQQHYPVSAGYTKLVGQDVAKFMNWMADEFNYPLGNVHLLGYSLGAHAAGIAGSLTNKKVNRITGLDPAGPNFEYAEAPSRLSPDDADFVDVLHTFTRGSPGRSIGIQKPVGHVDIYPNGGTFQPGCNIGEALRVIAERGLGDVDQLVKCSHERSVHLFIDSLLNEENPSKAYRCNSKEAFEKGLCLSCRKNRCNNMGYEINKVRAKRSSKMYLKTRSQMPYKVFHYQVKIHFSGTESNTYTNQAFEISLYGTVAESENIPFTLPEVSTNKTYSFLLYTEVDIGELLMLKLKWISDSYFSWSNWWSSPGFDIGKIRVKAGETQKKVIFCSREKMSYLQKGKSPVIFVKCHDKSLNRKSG
Procedure: LPL is inactivated by angiopoietin-like 4 (ANGPTL4). Compounds of the present disclosure were for activity using the following protection assay. Briefly, the assay was performed in a black opaque 96-well microtiter plate with final volume of 100 μL using a buffer consisting of 50 mM HEPES (pH 7.2), 150 mM NaCl and 0.03% Triton X-100. Compounds were prepared as 10 mM stocks in DMSO, with subsequent serial dilutions performed in DMSO. Two microliters of test compounds were added to the microtiter plate, followed by 49-PL of LPL (native bovine milk protein affinity purified using heparin-affinity chromatography) in assay buffer. The plate contents were mixed using an orbital shaker and allowed to incubate for 5 minutes at room temperature. The enzymatic assay was initiated by the addition of a mixture of 49 μL of 50 μM resorufin butyrate (Santa Cruz #sc-208302; prepared from a 10 mM DMSO stock) and ANGPTL4 (N-terminal GST construct consisting of residues 26-164 expressed in E. coli) in assay buffer. The final concentrations of LPL and ANGPTL4 were 2.5 nM and 20 nM, respectively. The assay was allowed to proceed at 30° C. for 25 minutes with kinetic monitoring (Ex560/Em585) followed by an endpoint reading which was used for analysis.
Data was analyzed in Graphpad Prism (version 6.0, GraphPad Software, Inc., San Diego, CA) using a variable slope four parameter fit of the equation:
Y=Bottom+(Top-Bottom)/(1+10^((Log EC50−X)*HillSlope)),
where X is the concentration of test compound, Y corresponds to the amount of product expressed in relative fluorescence units, and Top and Bottom refer to the plateaus of the curve. Percent activation (protection) of test compound was calculated relative to zero effect wells (ZEW; LPL, ANGPTL4 and substrate) and maximum effect wells (MEW; LPL plus substrate): ((test well−ZEW)/(MEW−ZEW))*100.

| Structure (SMILES) | EC50 [1] [µM] | EC50 [2] [µM] |
| --- | --- | --- |
| CC1CCN(c2ccc(C(=O)Nc3ccc(F)cc3CC(=O)O)cc2NC(=O)c2nn(CC(F)(F)F)c3ccccc23)CC1 [Example 64] | 1.2 |  |
| O=C(O)Cc1cc(F)ccc1NC(=O)c1ccc(N2CCCCC2)c(NC(=O)Nc2nn(CC(F)(F)F)c3ccccc23)c1 [Compound 129, 2-(5-fluoro-2-(4-(piperidin-1-yl)-3-(3-(1-(2,2,2-trifluoroethyl)-1H-indazol-3-yl)ureido)benzamido)phenyl)acetic acid] | 3.3 |  |
| O=C(Nc1ccc(-c2nnn[nH]2)cc1)c1ccc(N2CCCCC2)c(NC(=O)c2nn(CC(F)(F)F)c3ccccc23)c1 [Compound 164, N-(5-((4-(1H-tetrazol-5-yl)phenyl)carbamoyl)-2-(piperidin-1-yl)phenyl)-1-(2,2,2-trifluoroethyl)-1H-indazole-3-carboxamide] |  | 5.16 |
| O=C(O)Cc1ccccc1NC(=O)c1ccc(N2CCCCC2)c(NC(=O)c2cc3n(n2)CCCC3)c1 [Compound 161, 2-(2-(4-(piperidin-1-yl)-3-(4,5,6,7-tetrahydropyrazolo[1,5-a]pyridine-2-carboxamido)benzamido)phenyl)acetic acid] |  | 3.2 |
| Cn1nc(C(=O)Nc2cc(C(=O)Nc3cc(-c4nnn[nH]4)ccc3F)ccc2N2CCCCC2)c2ccccc21 [Compound 166, N-(5-((2-fluoro-5-(1H-tetrazol-5-yl)phenyl)carbamoyl)-2-(piperidin-1-yl)phenyl)-1-methyl-1H-indazole-3-carboxamide] |  | 8.1 |
| Cc1ccc(NC(=O)c2cc(NCc3cc(-c4nnn[nH]4)ccc3F)ccc2N2CCCCC2)cc1 [Compound 169, 5-((2-fluoro-5-(1H-tetrazol-5-yl)benzyl)amino)-2-(piperidin-1-yl)-N-(p-tolyl)benzamide] |  | 6.38 |
| O=C(O)Cc1cc(F)ccc1NC(=O)c1ccc(N2CCCCC2)c(NS(=O)(=O)c2nn(CC(F)(F)F)c3ccccc23)c1 [Compound 114, 2-(5-fluoro-2-(4-(piperidin-1-yl)-3-((1-(2,2,2-trifluoroethyl)-1H-indazole)-3-sulfonamido)benzamido)phenyl)acetic acid] | > 25 |  |
| Cc1ccc(NC(=O)c2cc(-n3cc4ccc(-c5nnn[nH]5)cc4n3)ccc2N2CCCCC2)cc1 [Compound 167, 5-(6-(1H-tetrazol-5-yl)-2H-indazol-2-yl)-2-(piperidin-1-yl)-N-(p-tolyl)benzamide] |  | 9.41 |
| O=C(O)Cc1cc(F)ccc1NC(=O)c1ccc(N2CCCCC2)c(NC(=O)c2nn(CC(F)(F)F)c3ccccc23)n1 [Compound 45, 2-(5-fluoro-2-(5-(piperidin-1-yl)-6-(1-(2,2,2-trifluoroethyl)-1H-indazole-3-carboxamido)picolinamido)phenyl)acetic acid] | > 25 |  |
| O=C(O)Cc1cc(F)ccc1NC(=O)c1ccc(N2CCCCC2)c(NC(=O)c2nn(CC3COCCO3)c3ccccc23)c1 (stereo not drawn) [Compound 132, 2-(2-(3-(1-((1,4-dioxan-2-yl)methyl)-1H-indazole-3-carboxamido)-4-(piperidin-1-yl)benzamido)-5-fluorophenyl)acetic acid] | 7.4 |  |
| O=C(O)Cc1cc(F)ccc1NC(=O)c1ccc(N2CCCCC2)c(NC(=O)c2nn(CCN3CCOCC3)c3ccccc23)c1 [Compound 120, 2-(5-fluoro-2-(3-(1-(2-morpholinoethyl)-1H-indazole-3-carboxamido)-4-(piperidin-1-yl)benzamido)phenyl)acetic acid] | > 25 |  |
| Cn1nc(C(=O)Nc2cc(C(=O)Nc3ccccc3CC(=O)O)ccc2N2CCCCC2)cc1-c1ccccc1 [Compound 163, 2-(2-(3-(1-methyl-5-phenyl-1H-pyrazole-3-carboxamido)-4-(piperidin-1-yl)benzamido)phenyl)acetic acid] |  | 4.13 |
| CC1CCCCN1c1ccc(C(=O)Nc2ccc(F)cc2CC(=O)O)cc1NC(=O)c1nn(CC(F)(F)F)c2ccccc12 (stereo not drawn) [Example 67] | 2.5 |  |
| Cn1nc(C(=O)Nc2cc(C(=O)Nc3ccc(-c4nnn[nH]4)cc3)ccc2N2CCCCC2)c2ccc(F)cc21 [Compound 165, N-(5-((4-(1H-tetrazol-5-yl)phenyl)carbamoyl)-2-(piperidin-1-yl)phenyl)-6-fluoro-1-methyl-1H-indazole-3-carboxamide] |  | 7.99 |
| Cc1ccc(NC(=O)c2cc(NCc3ccc(-c4nsc(=O)[nH]4)cc3)ccc2N2CCCCC2)cc1 [Compound 168, N-(4-methylphenyl)-5-({[4-(5-oxo-4,5-dihydro-1,2,4-thiadiazol-3-yl)phenyl]methyl}amino)-2-(piperidin-1-yl)benzamide] |  | 14.9 |
| O=C(O)Cc1cccc(Cl)c1NC(=O)c1ccc(N2CCCCC2)c(NC(=O)c2nn(CC(F)(F)F)c3ccccc23)c1 [Compound 25, 2-(3-chloro-2-(4-(piperidin-1-yl)-3-(1-(2,2,2-trifluoroethyl)-1H-indazole-3-carboxamido)benzamido)phenyl) acetic acid] | 5 |  |
| CC1CCCN(c2ccc(C(=O)Nc3ccc(F)cc3CC(=O)O)cc2NC(=O)c2nn(CC(F)(F)F)c3ccccc23)C1 (stereo not drawn) [Example 73] | 2.2 |  |
| CCC1CCCCN1c1ccc(C(=O)Nc2ccc(F)cc2CC(=O)O)cc1NC(=O)c1nn(CC(F)(F)F)c2ccccc12 (stereo not drawn) [Example 72] | 2.7 |  |
| O=C(O)Cc1cc(F)ccc1NC(=O)c1ccc(N2CCCOCC2)c(NC(=O)c2nn(CC(F)(F)F)c3ccccc23)c1 [Example 63] | 10 |  |
| O=C(O)Cc1cc(F)ccc1NC(=O)c1ccc(N2CCCCC2)c(NC(=O)c2nn(Cc3ccccc3)c3ccccc23)c1 [Compound 159, 2-(2-(3-(1-benzyl-1H-indazole-3-carboxamido)-4-(piperidin-1-yl)benzamido)-5-fluorophenyl)acetic acid] |  | 0.85 |
| Cc1nc(Cn2nc(C(=O)Nc3cc(C(=O)Nc4ccc(F)cc4CC(=O)O)ccc3N3CCCCC3)c3ccccc32)no1 [Compound 125, 2-(5-fluoro-2-(3-(1-((5-methyl-1,2,4-oxadiazol-3-yl)methyl)-1H-indazole-3-carboxamido)-4-(piperidin-1-yl)benzamido)phenyl)acetic acid] | 6.4 |  |
